Data from patent US8846656B2, “Tetrahydropyrido-pyridine and tetrahydropyrido-pyrimidine compounds and use thereof as C5a receptor modulators” (Novartis AG, priority 2011, dated 2014).
Values joined by “and” are separate entries in the source; they are usually repeats but may differ in a detail not shown here. Equal entries are not always repeated. Where two headings read alike, the source gives them in different places.

Assays:
[1] = target: human C5aR (Homo sapiens (Human), UniProt P21730); test: FLIPR assay: inhibition of C5a-mediated calcium mobilization; assay type: cell-based; settings: stable cell line over expressing human C5aR & Gα15, human C5a at EC50 (0.1-0.25 nM)
human C5aR, sequence (P21730 whole entry): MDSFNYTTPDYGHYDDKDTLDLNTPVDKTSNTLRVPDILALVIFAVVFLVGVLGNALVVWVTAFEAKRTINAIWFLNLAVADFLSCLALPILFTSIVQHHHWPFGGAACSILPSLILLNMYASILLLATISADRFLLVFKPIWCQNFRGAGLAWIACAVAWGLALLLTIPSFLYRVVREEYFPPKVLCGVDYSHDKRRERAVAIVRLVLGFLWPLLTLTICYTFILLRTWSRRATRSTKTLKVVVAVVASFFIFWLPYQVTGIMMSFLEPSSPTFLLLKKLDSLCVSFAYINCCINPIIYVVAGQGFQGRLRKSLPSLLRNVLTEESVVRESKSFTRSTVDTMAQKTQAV
Procedure: Compounds were tested for their ability to inhibit C5a-mediated calcium mobilization using a stable cell line over expressing the human C5aR & the Gα15 protein on the FLIPR (Fluorescent Imaging Plate Reader) Tetra system. Cells were maintained in culture media containing DMEM (Dulbecco's Modified Eagle Medium) with 4.5 g/L glucose, 10% fetal bovine serum, 100 U/mL, 1× non-essential amino acid, and 250 μg/mL G418 (Geneticin). Prior to testing of compounds, cells were plated at 10,000 cells/well in clear bottom 384-well black plate, and incubated overnight at 37° C. with 5% CO2. On the day of experiment, culture media was removed, and replaced with assay buffer HBSS (Hanks' Balanced Salt Solution) with 20 mM HEPES (4-(2-hydroxyethyl)-1-piperazineethanesulfonic acid) and 0.1% BSA (bovine serum albumin) BSA containing calcium 5 dye (Molecular Devices) and 2.5 mM probenecid. After 1 hour incubation at 37° C., 5% CO2 for 60 min, cells were pre-incubated with compounds for 30 minutes at room temperature, in 1% DMSO (dimethyl sulfoxide).

[2] = tested on: CD11b; test: Human whole blood CD11b up-regulation assay; assay type: cell-based; settings: 2 nM human C5a, CD15+ granulocytes, read-out: hCD11b IC50
Procedure: Whole blood was collected in sodium heparin tubes and the assay started within 2 hours of the blood draw. The blood was incubated with compounds in 1% DMSO (dimethyl sulfoxide) at room temperature for 10 minutes with gentle rocking. 2 nM of human C5a was then added for 15 minutes at room temperature with gentle rocking. Following the C5a incubation period cells were washed once with cold FACS (fluorescence-activated cell sorting) buffer (phosphate buffered saline+0.5% bovine serum albumin) FITC (fluorescein isothiocyanate) mouse anti-human CD15 and PE-Cy5 (phycoerythrin-cyanine 5) mouse anti-human CD11b antibodies (Becton Dickinson) were gently mixed with the cells and allowed to incubate for 30 minutes on ice protected from the light. Cells were then washed three times with cold FACS buffer. Red blood cells (RBC) were lysed by incubating with BD FACS lysis buffer (Becton Dickinson) for 10 minutes at room temperature. Cells were pelleted and the lysing procedure was repeated until all RBCs were lysed. The remaining leukocytes were resuspended in BD lysis buffer. Samples were acquired on the LSR^11 flow cytometer and 10,000 events of the CD15+ granulocyte population were collected. The CD11b median fluorescence intensity of the CD 15+ cell population was evaluated using FACSDiva software (Becton Dickinson).

IC50 [1]	IC50 ([2]; Homo sapiens)	IC50 [2]	SMILES
0.002 µM	0.026 µM		CO[C@H]1CCN(c2nc(-c3c(C)cccc3C)nc3c2CN(c2cc(C(C)C)ccc2C)CC3)CC1(C)C [Example 19-AD, (S)-2-(2,6-dimethylphenyl)-6-(5-isopropyl-2-methylphenyl)-4-(4-methoxy-3,3-dimethylpiperidin-1-yl)-5,6,7,8-tetrahydropyrido[4,3-d]pyrimidine]
0.002 µM	0.016 µM		Cc1ccc(C(C)C)cc1N1CCc2nc(-c3c(C)ccc4[nH]nc(C)c34)nc(N3CC[C@@H](N(C)C)C3)c2C1 [Example 65-B, (R)-1-(2-(3,5-dimethyl-1H-indazol-4-yl)-6-(5-isopropyl-2-methylphenyl)-5,6,7,8-tetrahydropyrido[4,3-d]pyrimidin-4-yl)-N,N-dimethylpyrrolidin-3-amine]
0.064 µM	0.011 µM		CO[C@H]1CCN(c2nc(-c3c(C)ccc4[nH]nc(C)c34)nc3c2CN(c2cc(C(F)(F)F)nn2C)CC3)CC1(C)C [Example 23-K, (S)-2-(3,5-dimethyl-1H-indazol-4-yl)-4-(4-methoxy-3,3-dimethylpiperidin-1-yl)-6-(1-methyl-3-(trifluoromethyl)-1H-pyrazol-5-yl)-5,6,7,8-tetrahydropyrido[4,3-d]pyrimidine]
0.004 µM	0.114 µM		CO[C@H]1CCN(c2nc(-c3cccc4[nH]cc(C)c34)nc3c2CN(c2cc(C(C)C)ccc2C)CC3)CC1(C)C [Example 17-G, (S)-6-(5-Isopropyl-2-methylphenyl)-4-(4-methoxy-3,3-dimethylpiperidin-1-yl)-2-(3-methyl-1H-indol-4-yl)-5,6,7,8-tetrahydropyrido[4,3-d]pyrimidine]
0.004 µM	0.017 µM		CO[C@@H]1CCN(c2nc(-c3c(C)cccc3Cl)nc3c2CN(c2cc(C(C)C)ccc2C)CC3)C[C@H]1C [Example 19-AH, 2-(2-chloro-6-methylphenyl)-6-(5-isopropyl-2-methylphenyl)-4-((3R,4R)-4-methoxy-3-methylpiperidin-1-yl)-5,6,7,8-tetrahydropyrido[4,3-d]pyrimidine]
	0.178 µM		[2H]C1([2H])c2c(C)cc(-c3c(C)ccc4[nH]ncc34)nc2CCN1c1cc(C(C)C)ccc1C [Example 43-A, 6-(5-Isopropyl-2-methylphenyl)-4-methyl-2-(5-methyl-1H-indazol-4-yl)-5,6,7,8-tetrahydro(5,5-^2H2)-1,6-naphthyridine]
	0.153 µM		Cc1ccc(C(C)C)cc1N1CCc2nc(-c3c(C)ccc4[nH]ncc34)cc(C)c2C1 [Example 41-D, 6-(5-Isopropyl-2-methylphenyl)-4-methyl-2-(5-methyl-1H-indazol-4-yl)-5,6,7,8-tetrahydro-1,6-naphthyridine]
		0.038 µM	CCn1nc(C2CC2)c(Cl)c1N1CCc2nc(-c3c(C)ccc4[nH]nc(C)c34)nc(N3CCC3C)c2C1 (single isomer, unassigned) [Example 70-I, 6-(4-chloro-3-cyclopropyl-1-ethyl-1H-pyrazol-5-yl)-2-(3,5-dimethyl-1H-indazol-4-yl)-4-(2-methylazetidin-1-yl)-5,6,7,8-tetrahydropyrido[4,3-d]pyrimidine]
0.197 µM			COCCN(C)c1cc(-c2c(C)cccc2C)nc2c1CN(c1cc(C(C)C)ccc1C)CC2 [Example 51-D, 2-(2,6-dimethylphenyl)-6-(5-isopropyl-2-methylphenyl)-N-(2-methoxyethyl)-N-methyl-5,6,7,8-tetrahydro-1,6-naphthyridin-4-amine]
	0.041 µM		CCn1nc(C2CC2)c(Cl)c1N1CCc2nc(-c3c(C)ccc4[nH]nc(C)c34)nc(N3CCC3C)c2C1 (single isomer, unassigned) [Example 70-H, 6-(4-chloro-3-cyclopropyl-1-ethyl-1H-pyrazol-5-yl)-2-(3,5-dimethyl-1H-indazol-4-yl)-4-(2-methylazetidin-1-yl)-5,6,7,8-tetrahydropyrido[4,3-d]pyrimidine]
0.198 µM			CCc1cccc(CC)c1-c1cc(C)c2c(n1)CCN(c1nnnn1C)C2 [Example 48, 2-(2,6-Diethylphenyl)-4-methyl-6-(1-methyl-1H-tetrazol-5-yl)-5,6,7,8-tetrahydro-1,6-naphthyridine]
	0.046 µM		Cc1ccc2[nH]nc(C)c2c1-c1nc2c(c(N3CCOC[C@H]3C)n1)CN(c1c(F)c(C3CC3)nn1C)CC2 [Example 76-C, (R)-4-(6-(3-Cyclopropyl-4-fluoro-1-methyl-1H-pyrazol-5-yl)-2-(3,5-dimethyl-1H-indazol-4-yl)-5,6,7,8-tetrahydropyrido[4,3-d]pyrimidin-4-yl)-3-methylmorpholine]
0.005 µM			CCO[C@@H]1CCN(c2nc(-c3c(C)ccc4[nH]nc(C)c34)nc3c2CN(c2c(Cl)c(C4CC4)nn2C)CC3)[C@H](C)C1 [Example 55-J, 6-(4-chloro-3-cyclopropyl-1-methyl-1H-pyrazol-5-yl)-2-(3,5-dimethyl-1H-indazol-4-yl)-4-((2R,4R)-4-ethoxy-2-methylpiperidin-1-yl)-5,6,7,8-tetrahydropyrido[4,3-d]pyrimidine]
0.002 µM			CO[C@@H]1CCN(c2nc(-c3cccc4[nH]cc(C)c34)nc3c2CN(c2cc(C(C)C)ccc2C)CC3)CC1(C)C [Example 17-AM, (R)-6-(5-Isopropyl-2-methylphenyl)-4-(4-methoxy-3,3-dimethylpiperidin-1-yl)-2-(3-methyl-1H-indol-4-yl)-5,6,7,8-tetrahydropyrido[4,3-d]pyrimidine]
0.16 µM			Cc1ccccc1N1CCc2nc(-c3c(C)cccc3C)nc(N3CCOC(C)(C)C3)c2C1 [Example 17-Y, 4-(2-(2,6-dimethylphenyl)-6-(o-tolyl)-5,6,7,8-tetrahydropyrido[4,3-d]pyrimidin-4-yl)-2,2-dimethylmorpholine]
0.025 µM			COc1ccc(C)c(N2CCc3nc(-c4c(C)ccc5[nH]ncc45)cc(C)c3C2)c1 [Example 46-C]
0.004 µM and 0.002 µM			CO[C@@H]1CCN(c2nc(-c3c(C)ccc4[nH]nc(C)c34)nc3c2CN(c2c(Cl)c(C4CC4)nn2C)CC3)CC1(C)C [Example 55-G, (R)-6-(4-Chloro-3-cyclopropyl-1-methyl-1H-pyrazol-5-yl)-2-(3,5-dimethyl-1H-indazol-4-yl)-4-(4-methoxy-3,3-dimethylpiperidin-1-yl)-5,6,7,8-tetrahydropyrido[4,3-d]pyrimidine]
0.012 µM			Cc1ccc(C(C)C)cc1N1CCc2nc(-c3cccc4[nH]cc(C)c34)nc(N3CCC[C@H](O)C3)c2C1 [Example 17-AV, (S)-1-(6-(5-isopropyl-2-methylphenyl)-2-(3-methyl-1H-indol-4-yl)-5,6,7,8-tetrahydropyrido[4,3-d]pyrimidin-4-yl)piperidin-3-ol]
	0.054 µM		Cc1ccc2[nH]nc(C)c2c1-c1nc2c(c(N3CC[C@@H]4OC[C@]4(C)C3)n1)CN(c1c(Cl)c(C3CC3)nn1C)CC2 (racemic) [Example 69-L, (1S*,6S*)-3-(6-(4-chloro-3-cyclopropyl-1-methyl-1H-pyrazol-5-yl)-2-(3,5-dimethyl-1H-indazol-4-yl)-5,6,7,8-tetrahydropyrido[4,3-d]pyrimidin-4-yl)-1-methyl-7-oxa-3-azabicyclo[4.2.0]octane]
0.868 µM			Cc1cc(-c2c(C)ccc3[nH]ncc23)nc2c1CN(c1cc(C3CC3)nn1C)CC2 [Example 40-Q, 6-(3-cyclopropyl-1-methyl-1H-pyrazol-5-yl)-4-methyl-2-(5-methyl-1H-indazol-4-yl)-5,6,7,8-tetrahydro-1,6-naphthyridine]
0.018 µM			CC(=O)N1CCN(c2nc(-c3cccc4[nH]cc(C)c34)nc3c2CN(c2cc(C(C)C)ccc2C)CC3)CC12CC2 [Example 53, 1-(7-(6-(5-Isopropyl-2-methylphenyl)-2-(3-methyl-1H-indol-4-yl)-5,6,7,8-tetrahydropyrido[4,3-d]pyrimidin-4-yl)-4,7-diazaspiro[2.5]octan-4-yl)ethanone]
0.802 µM			[2H]C1([2H])c2c(C)cc(-c3c(C)cnc4[nH]ccc34)nc2CCN1c1cc(C(C)C)ccc1C [Example 43-D, 6-(5-isopropyl-2-methylphenyl)-4-methyl-2-(5-methyl-1H-pyrrolo[2,3-b]pyridin-4-yl)-5,6,7,8-tetrahydro(5,5-^2H2)-1,6-naphthyridine]

SMILES	IC50 [1]	IC50 ([2]; Homo sapiens)	IC50 [2]
CO[C@H]1C[C@H]2CC[C@@H](C1)N2c1nc(-c2c(C)ccc3[nH]nc(C)c23)nc2c1CN(c1c(F)c(C3CC3)nn1C)CC2 [Example 56-B]	0.002 µM	0.045 µM	
CO[C@H]1C[C@H]2CC[C@@H](C1)N2c1nc(-c2c(C)cccc2C)nc2c1CN(c1cc(C3(C)COC3)ccc1C)CC2 [Example 21-X, 2-(2,6-dimethylphenyl)-4-((3-endo)-3-methoxy-8-azabicyclo[3.2.1]octan-8-yl)-6-(2-methyl-5-(3-methyloxetan-3-yl)phenyl)-5,6,7,8-tetrahydropyrido[4,3-d]pyrimidine]	0.308 µM		
